This passage reports EC50 results from US20060014206A1, “Assay methods for state-dependent calcium channel agonists/antagonists” (priority 2002, published 2006).

For this test, the target named is T1, L-type calcium channel, the α1C subunit (Homo sapiens, UniProt Q13936).
T1 construct: expressed in transfected cells
The test is described as follows: FLIPR assay of K+-stimulated calcium influx in C1-6-37-3 cells (HEK 293 stably transfected with L-type α1C channel and Kir 2.3). The class given is cell-based. Particulars: fluo-3 loaded cells, increasing potassium concentration (FIG. 4).

T1 sequence (Q13936 whole entry): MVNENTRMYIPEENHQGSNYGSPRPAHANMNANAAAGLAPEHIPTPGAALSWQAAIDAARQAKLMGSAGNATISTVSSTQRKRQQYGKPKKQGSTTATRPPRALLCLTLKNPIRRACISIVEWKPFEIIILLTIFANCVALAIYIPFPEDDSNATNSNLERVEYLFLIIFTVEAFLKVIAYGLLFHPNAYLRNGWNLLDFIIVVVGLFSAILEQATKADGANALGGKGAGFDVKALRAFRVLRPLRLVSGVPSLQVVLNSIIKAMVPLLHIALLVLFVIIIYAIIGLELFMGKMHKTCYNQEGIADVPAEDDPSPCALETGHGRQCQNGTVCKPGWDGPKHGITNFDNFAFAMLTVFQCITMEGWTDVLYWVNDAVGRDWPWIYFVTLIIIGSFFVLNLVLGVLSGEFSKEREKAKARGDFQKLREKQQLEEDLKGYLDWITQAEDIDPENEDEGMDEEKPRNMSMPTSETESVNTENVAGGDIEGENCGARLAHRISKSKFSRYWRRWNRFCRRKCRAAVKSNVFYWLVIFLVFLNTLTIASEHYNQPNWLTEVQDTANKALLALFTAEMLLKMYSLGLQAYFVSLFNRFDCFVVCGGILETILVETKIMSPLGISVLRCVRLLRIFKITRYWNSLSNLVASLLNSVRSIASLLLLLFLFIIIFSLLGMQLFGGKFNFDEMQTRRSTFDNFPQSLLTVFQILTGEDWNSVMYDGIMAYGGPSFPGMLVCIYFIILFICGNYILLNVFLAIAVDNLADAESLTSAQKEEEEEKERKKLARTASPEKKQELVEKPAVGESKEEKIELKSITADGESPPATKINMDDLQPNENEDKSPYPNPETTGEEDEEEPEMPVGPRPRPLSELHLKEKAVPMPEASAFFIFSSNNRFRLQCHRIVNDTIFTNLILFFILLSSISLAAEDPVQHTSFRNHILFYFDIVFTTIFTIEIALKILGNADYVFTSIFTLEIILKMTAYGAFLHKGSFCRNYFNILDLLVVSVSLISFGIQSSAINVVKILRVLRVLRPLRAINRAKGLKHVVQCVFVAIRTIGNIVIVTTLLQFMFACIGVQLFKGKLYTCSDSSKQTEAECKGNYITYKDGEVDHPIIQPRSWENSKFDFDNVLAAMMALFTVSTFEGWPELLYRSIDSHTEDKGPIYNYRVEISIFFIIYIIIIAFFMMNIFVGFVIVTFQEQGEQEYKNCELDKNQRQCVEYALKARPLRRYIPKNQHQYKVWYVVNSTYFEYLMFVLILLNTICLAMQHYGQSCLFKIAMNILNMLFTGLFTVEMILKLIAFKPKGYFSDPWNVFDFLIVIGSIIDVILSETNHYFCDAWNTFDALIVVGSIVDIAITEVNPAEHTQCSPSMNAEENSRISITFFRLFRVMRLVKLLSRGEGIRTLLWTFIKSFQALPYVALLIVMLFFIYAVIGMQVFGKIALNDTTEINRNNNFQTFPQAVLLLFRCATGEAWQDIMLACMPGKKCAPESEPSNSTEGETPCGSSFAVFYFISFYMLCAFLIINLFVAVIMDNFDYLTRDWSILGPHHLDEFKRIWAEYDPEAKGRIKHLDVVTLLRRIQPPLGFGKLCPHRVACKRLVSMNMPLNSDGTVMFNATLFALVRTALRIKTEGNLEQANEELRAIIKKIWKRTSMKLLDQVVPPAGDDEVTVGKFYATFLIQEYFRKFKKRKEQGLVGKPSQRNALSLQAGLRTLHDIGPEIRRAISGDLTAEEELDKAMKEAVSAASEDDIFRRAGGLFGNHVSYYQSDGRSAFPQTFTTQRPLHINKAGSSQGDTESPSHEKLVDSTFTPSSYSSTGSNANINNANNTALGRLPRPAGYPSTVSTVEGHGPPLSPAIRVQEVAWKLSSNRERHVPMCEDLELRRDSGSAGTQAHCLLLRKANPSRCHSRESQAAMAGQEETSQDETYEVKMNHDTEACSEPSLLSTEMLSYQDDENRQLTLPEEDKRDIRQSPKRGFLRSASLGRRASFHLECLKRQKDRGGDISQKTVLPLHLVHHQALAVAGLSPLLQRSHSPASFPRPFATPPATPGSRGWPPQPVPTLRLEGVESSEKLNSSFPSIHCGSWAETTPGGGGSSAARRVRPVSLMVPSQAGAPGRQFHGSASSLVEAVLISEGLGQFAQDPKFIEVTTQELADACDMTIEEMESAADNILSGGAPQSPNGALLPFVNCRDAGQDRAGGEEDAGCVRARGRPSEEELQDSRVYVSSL
T1 sequence (P54289 25-946 partner limits assumed): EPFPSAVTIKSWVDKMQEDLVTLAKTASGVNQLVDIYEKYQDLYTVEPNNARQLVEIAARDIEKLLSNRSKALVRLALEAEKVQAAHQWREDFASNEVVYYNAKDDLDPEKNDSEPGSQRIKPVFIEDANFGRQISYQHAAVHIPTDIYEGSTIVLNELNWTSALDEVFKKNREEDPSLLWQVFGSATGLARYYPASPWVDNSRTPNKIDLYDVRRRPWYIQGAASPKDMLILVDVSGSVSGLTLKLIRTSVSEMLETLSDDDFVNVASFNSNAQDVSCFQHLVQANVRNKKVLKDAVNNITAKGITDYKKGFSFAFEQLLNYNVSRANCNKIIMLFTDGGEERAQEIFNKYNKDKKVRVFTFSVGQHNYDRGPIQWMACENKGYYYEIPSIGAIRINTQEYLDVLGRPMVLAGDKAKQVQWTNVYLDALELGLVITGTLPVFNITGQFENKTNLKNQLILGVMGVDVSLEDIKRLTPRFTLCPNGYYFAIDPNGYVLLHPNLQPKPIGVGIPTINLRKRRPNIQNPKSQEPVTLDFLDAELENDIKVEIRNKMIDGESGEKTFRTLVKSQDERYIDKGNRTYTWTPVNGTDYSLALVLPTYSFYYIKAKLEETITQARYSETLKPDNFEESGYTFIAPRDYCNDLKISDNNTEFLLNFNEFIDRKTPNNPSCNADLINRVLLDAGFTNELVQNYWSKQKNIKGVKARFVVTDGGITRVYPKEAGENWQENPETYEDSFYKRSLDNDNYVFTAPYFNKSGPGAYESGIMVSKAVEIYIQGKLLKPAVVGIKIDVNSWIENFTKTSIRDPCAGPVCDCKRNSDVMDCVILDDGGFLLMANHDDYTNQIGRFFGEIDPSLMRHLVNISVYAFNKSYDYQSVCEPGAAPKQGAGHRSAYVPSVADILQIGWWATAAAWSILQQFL
T1 sequence (P54289 947-1103 partner limits assumed): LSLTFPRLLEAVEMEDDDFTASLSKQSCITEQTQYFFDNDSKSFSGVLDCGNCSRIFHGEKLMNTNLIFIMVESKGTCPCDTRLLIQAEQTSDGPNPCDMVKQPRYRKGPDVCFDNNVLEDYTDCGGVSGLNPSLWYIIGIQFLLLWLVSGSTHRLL
T1 sequence (Q08289 whole entry partner): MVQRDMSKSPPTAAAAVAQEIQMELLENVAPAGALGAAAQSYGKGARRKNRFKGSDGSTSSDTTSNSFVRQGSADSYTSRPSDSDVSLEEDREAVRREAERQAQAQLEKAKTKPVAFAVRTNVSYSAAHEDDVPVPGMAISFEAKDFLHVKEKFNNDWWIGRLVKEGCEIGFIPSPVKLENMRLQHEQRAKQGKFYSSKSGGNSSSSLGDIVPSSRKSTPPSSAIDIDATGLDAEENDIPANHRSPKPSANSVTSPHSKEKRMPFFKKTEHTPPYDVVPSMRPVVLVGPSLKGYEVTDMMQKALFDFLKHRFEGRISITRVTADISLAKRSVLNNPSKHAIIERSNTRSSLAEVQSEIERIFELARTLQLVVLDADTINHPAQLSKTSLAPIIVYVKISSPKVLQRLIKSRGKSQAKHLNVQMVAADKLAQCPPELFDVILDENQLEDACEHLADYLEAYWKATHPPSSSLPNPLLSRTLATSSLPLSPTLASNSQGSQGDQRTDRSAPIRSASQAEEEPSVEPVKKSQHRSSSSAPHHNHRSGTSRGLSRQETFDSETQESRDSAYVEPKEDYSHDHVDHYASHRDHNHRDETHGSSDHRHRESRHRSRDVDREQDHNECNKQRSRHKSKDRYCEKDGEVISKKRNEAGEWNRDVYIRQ
Method: The cell line used in this embodiment has a stably transfected L-type calcium channel, the α1C subunit. It also was transfected with the Kir 2.3 inward rectifier K channel, which allows for control of cell membrane potential through alteration of extracellular [K^+]o. Preincubation of the cells for 10 min in 30 mM [K^+]o partially depolarizes the cells.
Specifically exemplified herein is an assay to determine state-dependent drug-calcium channel interactions using a cell line that co-expresses a potassium channel (Kir2.3) that determines the resting membrane potential of the cells as a function of the external potassium ion concentration ([K]o) and a voltage gated calcium channel. Co-expressed in these cells is the L-type voltage gated calcium channel complex (alpha1C, alpha2-delta, beta2a). Potassium is used in a two step manner in this assay. First it is used to set the resting membrane potential (Vm) during antagonist incubation. […] This calcium influx is detected using a calcium sensitive dye (eg Fluo-3, Fluo4, Fura2, etc.). If the calcium influx is diminished by exposure to antagonists, this will be detected when compared to the control condition.
Hek 293 cells were stably transfected with the alpha 1C subunit of the L-type Calcium ion channel and Kir 2.3 inward K^+ rectifying channel (C1-6-37-3 cells). Calcium influx into the cells was measured in a FLIPR™ (Molecular Devices, CA). […]

Consider `[K+]` [K^+], for which the EC50 turned out to be 11 mM.

One may read the EC50 as the midpoint of the concentration-response curve.
